This is an account of results in patent US10696655B2, “Therapeutic compounds and uses thereof” (GENENTECH, INC., priority 2017, dated 2020).

As a reminder, the IC50 is the concentration that inhibits the measured activity by half.

The target of one test is CBP (Homo sapiens (Human), UniProt Q92793). The experiment in a line: CBP TR-FRET binding assay.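 Further: displacement of a biotinylated small-molecule ligand from purified recombinant CBP read by TR-FRET, DMSO-only wells as control, IC50 from nonlinear curve fit.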 The settings on record: His/Flag tagged CBP 4 nM, biotin-ligand 60 nM; read-out: CBP HTRF IC50. For orientation: TR-FRET usually uses a lanthanide donor and a delayed reading to cut background.
Chain of CBP (Q92793 whole entry): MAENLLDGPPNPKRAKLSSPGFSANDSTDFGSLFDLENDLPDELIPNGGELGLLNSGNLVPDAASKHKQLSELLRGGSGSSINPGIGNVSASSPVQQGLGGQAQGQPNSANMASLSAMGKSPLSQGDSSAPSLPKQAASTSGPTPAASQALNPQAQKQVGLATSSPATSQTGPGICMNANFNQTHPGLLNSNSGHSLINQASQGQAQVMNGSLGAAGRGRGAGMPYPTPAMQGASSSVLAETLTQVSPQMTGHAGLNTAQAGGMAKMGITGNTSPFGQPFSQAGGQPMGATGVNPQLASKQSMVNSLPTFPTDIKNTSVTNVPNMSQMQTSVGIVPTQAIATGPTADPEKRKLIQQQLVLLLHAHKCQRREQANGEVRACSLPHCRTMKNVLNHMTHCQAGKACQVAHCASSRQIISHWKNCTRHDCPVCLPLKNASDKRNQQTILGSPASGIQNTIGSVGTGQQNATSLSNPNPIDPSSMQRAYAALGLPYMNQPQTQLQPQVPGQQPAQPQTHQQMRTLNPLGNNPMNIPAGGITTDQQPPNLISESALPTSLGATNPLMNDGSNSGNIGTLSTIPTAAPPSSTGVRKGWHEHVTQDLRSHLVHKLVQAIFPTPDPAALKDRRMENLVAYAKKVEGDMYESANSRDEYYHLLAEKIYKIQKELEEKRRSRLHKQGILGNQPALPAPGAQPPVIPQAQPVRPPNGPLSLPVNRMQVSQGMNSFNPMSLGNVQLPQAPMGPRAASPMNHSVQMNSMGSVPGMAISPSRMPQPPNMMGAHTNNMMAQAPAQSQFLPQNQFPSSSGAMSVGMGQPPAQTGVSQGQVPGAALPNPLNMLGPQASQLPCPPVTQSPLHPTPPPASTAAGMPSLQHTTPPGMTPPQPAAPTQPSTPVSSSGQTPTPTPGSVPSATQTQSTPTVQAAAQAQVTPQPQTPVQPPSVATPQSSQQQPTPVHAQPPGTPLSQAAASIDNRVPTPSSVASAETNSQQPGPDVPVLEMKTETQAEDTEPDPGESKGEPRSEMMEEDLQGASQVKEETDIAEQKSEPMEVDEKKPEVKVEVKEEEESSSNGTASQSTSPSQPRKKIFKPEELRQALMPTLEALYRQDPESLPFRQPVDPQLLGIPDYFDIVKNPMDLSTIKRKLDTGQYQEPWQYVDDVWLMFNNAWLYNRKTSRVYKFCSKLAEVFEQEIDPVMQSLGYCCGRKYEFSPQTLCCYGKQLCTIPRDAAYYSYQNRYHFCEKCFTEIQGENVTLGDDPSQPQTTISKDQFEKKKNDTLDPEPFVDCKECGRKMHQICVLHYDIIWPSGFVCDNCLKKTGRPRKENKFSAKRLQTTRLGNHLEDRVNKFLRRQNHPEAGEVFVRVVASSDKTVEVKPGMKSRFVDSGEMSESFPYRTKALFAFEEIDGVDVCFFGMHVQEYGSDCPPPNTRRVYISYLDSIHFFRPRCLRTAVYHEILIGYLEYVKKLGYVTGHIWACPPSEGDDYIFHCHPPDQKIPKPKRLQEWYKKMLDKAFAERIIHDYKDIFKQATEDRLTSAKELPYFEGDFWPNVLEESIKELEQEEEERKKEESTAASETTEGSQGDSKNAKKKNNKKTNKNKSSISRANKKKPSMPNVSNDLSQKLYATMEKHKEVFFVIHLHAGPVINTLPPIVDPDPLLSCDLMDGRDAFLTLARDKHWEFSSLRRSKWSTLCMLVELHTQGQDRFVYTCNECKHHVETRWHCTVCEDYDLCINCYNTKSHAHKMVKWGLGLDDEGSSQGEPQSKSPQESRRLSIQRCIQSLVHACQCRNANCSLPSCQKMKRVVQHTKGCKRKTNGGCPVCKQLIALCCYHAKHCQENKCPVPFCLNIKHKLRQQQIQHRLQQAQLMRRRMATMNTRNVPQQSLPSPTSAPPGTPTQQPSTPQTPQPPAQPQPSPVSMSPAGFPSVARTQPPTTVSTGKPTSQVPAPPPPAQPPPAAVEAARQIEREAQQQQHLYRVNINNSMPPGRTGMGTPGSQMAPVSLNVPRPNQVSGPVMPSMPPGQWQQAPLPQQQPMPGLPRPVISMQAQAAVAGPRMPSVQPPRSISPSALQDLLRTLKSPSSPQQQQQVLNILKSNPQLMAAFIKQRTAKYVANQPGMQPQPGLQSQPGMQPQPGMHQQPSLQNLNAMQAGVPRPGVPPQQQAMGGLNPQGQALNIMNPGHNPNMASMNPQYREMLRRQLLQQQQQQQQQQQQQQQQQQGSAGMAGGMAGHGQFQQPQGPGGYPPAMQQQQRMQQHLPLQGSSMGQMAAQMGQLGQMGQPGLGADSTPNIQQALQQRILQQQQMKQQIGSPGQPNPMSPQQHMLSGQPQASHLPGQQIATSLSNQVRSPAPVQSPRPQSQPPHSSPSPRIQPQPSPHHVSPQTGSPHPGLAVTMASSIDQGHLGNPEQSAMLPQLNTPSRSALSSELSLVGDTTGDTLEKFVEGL
For another test, the system named is MYC. Briefly: MYC RPL19 QuantiGene assay in MV-4-11 cells. The test is classed as cell-based. The conditions noted are these: Homo sapiens, MV4-11, compound 4 hours. The source says:
MYC RPL19 QuantiGene assay in MV-4-11 Cells

A value given as a limit tells only on which side of the number the result lay.

Experimental for CBP: IC50 Measurements for Inhibitors Using CBP TR FRET Binding Assay
His/Flag epitope tagged CBP was cloned, expressed, and purified to homogeneity. CBP binding and inhibition was assessed by monitoring the engagement of a biotinylated small molecule compound with the target using the TR-FRET assay technology (Perkin-Elmer). Specifically, in a 384 well ProxiPlate CBP (4 nM final) was combined with biotin-ligand (60 nM final) in 50 mM HEPES (pH 7.5), 50 mM NaCl, 1 mM TCEP, 0.01% (w/v) BSA, and 0.008% (w/v) Brij-35 either in the presence of DMSO (final 0.2% DMSO) or compound dilution series in DMSO. […] After twenty minutes of equilibration, the plates were read on an Envision instrument and IC50S calculated using a four parameter non-linear curve fit.

Consider `CNC(=O)c1c[nH]c2ncc(N3CCCc4cc(-c5cnn(C)c5)c(C(F)F)cc43)nc12` [Example 69], for which the values for the concentration for half-maximal inhibition (IC50) at CBP and in the test on MYC were 0.004 µM and 0.047 µM, respectively.
In the case of `CNC(=O)c1cn(C)c2cc(C)c(N3CCCc4cc(-c5cnn(C)c5)c(C(F)F)cc43)cc12` [Example 57], the figures for the IC50 at CBP and in the test on MYC were 0.009 µM and 0.302 µM, respectively.
The like results for `CNC(=O)c1cn(C)c2ccc(N3CCCc4cc(-c5cnn(C)c5)c(C(F)F)cc43)cc12` [Example 50, 5-(7-(difluoromethyl)-6-(1-methyl-1H-pyrazol-4-yl)-3,4-dihydroquinolin-1(2H)-yl)-N,1-dimethyl-1H-indole-3-carboxamide] were, in that order, 0.009 µM and 0.496 µM.
On to `CNC(=O)c1ccc2cccc(N3CCCc4cc(-c5cnn(C)c5)c(C(F)F)cc43)c2n1` [Example 120, 7-(difluoromethyl)-N-methyl-6-(1-methyl-1H-pyrazol-4-yl)-3,4-dihydro-2H-[1,8′-biquinoline]-2′-carboxamide], for which the concentration for half-maximal inhibition (IC50) on CBP is 0.006 µM; in the test with MYC, 0.632 µM.
Regarding `CC(=O)N1CCc2c(cc(N3CCCc4cc(-c5cnn(C)c5)c(C(F)F)cc43)c(=O)n2C)C1` [Example 17], the figures for the 50% inhibitory concentration (IC50) on CBP and in the test with MYC were 0.047 µM and 2.66 µM, respectively.
`CCc1cc(N2CCCc3cc(-c4cnn(C)c4)c(C(F)F)cc32)cc2c1n(C)c(=O)n2C` [Example 37]: the 50% inhibitory concentration (IC50) on CBP worked out at 0.011 µM; in the test with MYC, 0.281 µM.
For `CCc1cc2c(cc1N1CCCc3cc(-c4cnn(C)c4)c(C(F)F)cc31)n(C)c(=O)n2C` [Example 47], the IC50 stood at 0.039 µM on CBP and 1.11 µM in the test on MYC.
In the case of `CNC(=O)N1CCNc2ccc(N3CCCc4cc(-c5cnn(C)c5)c(C(F)F)cc43)cc2C1` [Example 16, 7-[7-(difluoromethyl)-6-(1-methylpyrazol-4-yl)-3,4-dihydro-2H-quinolin-1-yl]-N-methyl-1,2,3,5-tetrahydro-1,4-benzodiazepine-4-carboxamide], the IC50 on CBP came out at 0.008 µM; with MYC, 0.173 µM.
`CNC(=O)c1c[nH]c2c(C(C)C)nc(N3CCCc4cc(-c5cnn(C)c5)c(C(F)F)cc43)cc12` [Example 63]: the half-maximal inhibitory concentration (IC50) at CBP turned out to be 0.002 µM; in the test with MYC, 0.053 µM.
As to `CNC(=O)c1cn(C)c2c(C(C)C)cc(N3CCCc4cc(-c5cnn(C)c5)c(C(F)F)cc43)cc12` [Example 108, 5-(7-(difluoromethyl)-6-(1-methyl-1H-pyrazol-4-yl)-3,4-dihydroquinolin-1(2H)-yl)-7-isopropyl-N,1-dimethyl-1H-indole-3-carboxamide], the values for the half-inhibitory concentration (IC50) on CBP and in the test with MYC were 0.031 µM and 0.235 µM, respectively.
Turning to `Cn1cc(-c2cc3c(cc2C(F)F)N(c2cc(C4=CC[S+]([O-])CC4)c4c(c2)n(C)c(=O)n4C)CCC3)cn1` (stereo not shown) [Example 98, 6-(7-(difluoromethyl)-6-(1-methyl-1H-pyrazol-4-yl)-3,4-dihydroquinolin-1(2H)-yl)-1,3-dimethyl-4-(1-oxido-3,6-dihydro-2H-thiopyran-4-yl)-1H-benzo[d]imidazol-2(3H)-one], the values for the IC50 at CBP and with MYC were 0.004 µM and 0.086 µM, respectively.
Consider `CNC(=O)c1c[nH]c2c(C(C)C)cc(N3CCCc4cc(-c5cnn(C)c5)c(C(F)F)cc43)cc12` [Example 62, 5-(7-(difluoromethyl)-6-(1-methyl-1H-pyrazol-4-yl)-3,4-dihydroquinolin-1(2H)-yl)-7-isopropyl-N-methyl-1H-indole-3-carboxamide], for which the IC50 at CBP was found to be 0.012 µM; with MYC it was 0.084 µM.
In the same order, the values of `CC(C)c1cc(N2CCCc3cc(-c4cnn(C)c4)c(C(F)F)cc32)cc2c1n(C)c(=O)n2C` [Example 96, 6-(7-(difluoromethyl)-6-(1-methyl-1H-pyrazol-4-yl)-3,4-dihydroquinolin-1(2H)-yl)-4-isopropyl-1,3-dimethyl-1H-benzo[d]imidazol-2(3H)-one] are 0.009 µM and 0.22 µM.
As for `CNC(=O)c1c[nH]c2c(C)nc(N3CCCc4cc(-c5cnn(C)c5)c(C(F)F)cc43)cc12` [Example 64, 5-(7-(difluoromethyl)-6-(1-methyl-1H-pyrazol-4-yl)-3,4-dihydroquinolin-1(2H)-yl)-N,7-dimethyl-1H-pyrrolo[2,3-c]pyridine-3-carboxamide], the values for the IC50 at CBP and with MYC were 0.002 µM and 0.143 µM, respectively.
As for `Cn1cc(-c2cc3c(cc2C(F)F)N(c2cc(N4CCOCC4)c4c(c2)n(C)c(=O)n4C)CCC3)cn1` [Example 45], the concentration for half-maximal inhibition (IC50) on CBP is 0.004 µM; in the test on MYC, 0.011 µM.
The like results for `CNC(=O)c1cn(C)c2cnc(N3CCCc4cc(-c5cnn(C)c5)c(C(F)F)cc43)cc12` [Example 59] were, in that order, 0.006 µM and 0.205 µM.
With `CNC(=O)c1c[nH]c2ccc(N3CCCc4cc(-c5cnn(C)c5)c(C(F)F)cc43)cc12` [Example 52, 5-(7-(difluoromethyl)-6-(1-methyl-1H-pyrazol-4-yl)-3,4-dihydroquinolin-1(2H)-yl)-N-methyl-1H-indole-3-carboxamide], the figures for the concentration for half-maximal inhibition (IC50) at CBP and in the test on MYC were 0.009 µM and 2.18 µM, respectively.
Regarding `Cn1cc(-c2cc3c(cc2C(F)F)N(c2ccc4c(c2F)n(C)c(=O)n4C)CCC3)cn1` [Example 34], the results for the IC50 on CBP and in the test with MYC were over 4.9 µM and over 10 µM, respectively.
Regarding `Cc1cc2c(cc1N1CCCc3cc(-c4cnn(C)c4)c(C(F)F)cc31)n(C)c(=O)n2C` [Example 46], the values for the half-inhibitory concentration (IC50) at CBP and in the test on MYC were 0.013 µM and 0.413 µM, respectively.
In the same order, the values of `Cn1cc(-c2cc3c(cc2C(F)F)N(c2ccc4c(c2)n(C)c(=O)n4C)CCC3)cn1` [Example 18] are 0.019 µM and 1.02 µM.
Turning to `CNC(=O)c1cn(C)c2ccc(N3CCCc4cc(-c5cnn(C)c5)c(C(F)F)cc43)c(F)c12` [Example 55], the IC50 on CBP is 0.004 µM; in the test with MYC, 0.115 µM.
In the same order, the values of `CNC(=O)c1ccc2c(c1)c(N1CCCc3cc(-c4cnn(C)c4)c(C(F)F)cc31)nn2C1CCOCC1` [Example 83, 3-(7-(difluoromethyl)-6-(1-methyl-1H-pyrazol-4-yl)-3,4-dihydroquinolin-1(2H)-yl)-N-methyl-1-(tetrahydro-2H-pyran-4-yl)-1H-indazole-5-carboxamide] are 0.009 µM and 0.177 µM.
For the compound `CNC(=O)c1c[nH]c2cnc(N3CCCc4cc(-c5cnn(C)c5)c(C(F)F)cc43)cc12` [Example 67], the 50% inhibitory concentration (IC50) at CBP is 0.005 µM; in the test on MYC, 0.358 µM.
Regarding `CNC(=O)c1cn(C)c2ccc(N3CCCc4cc(-c5cnn(C)c5)c(C(F)F)cc43)nc12` [Example 58], the IC50 at CBP was 0.009 µM; with MYC it was 0.181 µM.
Turning to `COc1cc(N2CCCc3cc(-c4cnn(C)c4)c(C(F)F)cc32)cc2c1n(C)c(=O)n2C` [Example 100, 6-(7-(difluoromethyl)-6-(1-methyl-1H-pyrazol-4-yl)-3,4-dihydroquinolin-1(2H)-yl)-4-methoxy-1,3-dimethyl-1H-benzo[d]imidazol-2(3H)-one], the IC50 turned out to be 0.01 µM at CBP and 0.164 µM in the test with MYC.
As to `CN(C)c1cc(N2CCCc3cc(-c4cnn(C)c4)c(C(F)F)cc32)cc2c1n(C)c(=O)n2C` [Example 41, 6-(7-(difluoromethyl)-6-(1-methyl-1H-pyrazol-4-yl)-3,4-dihydroquinolin-1(2H)-yl)-4-(dimethylamino)-1,3-dimethyl-1H-benzo[d]imidazol-2(3H)-one], the values for the IC50 on CBP and in the test on MYC were 0.005 µM and 0.136 µM, respectively.
The like results for `Cn1cc(-c2cc3c(cc2C(F)F)N(c2cc(C4CCC4)c4c(c2)n(C)c(=O)n4C)CCC3)cn1` [Example 39] were, in that order, 0.012 µM and 0.208 µM.
As for `Cc1cc(N2CCCc3cc(-c4cnn(C)c4)c(C(F)F)cc32)cc2c1n(C)c(=O)n2C` [Example 36, 6-(7-(difluoromethyl)-6-(1-methyl-1H-pyrazol-4-yl)-3,4-dihydroquinolin-1(2H)-yl)-1,3,4-trimethyl-1H-benzo[d]imidazol-2(3H)-one], the results for the half-inhibitory concentration (IC50) on CBP and in the test on MYC were 0.014 µM and 1.38 µM, respectively.
`CNC(=O)c1cn(C)c2c(C)cc(N3CCCc4cc(-c5cnn(C)c5)c(C(F)F)cc43)cc12` [Example 104, 5-(7-(difluoromethyl)-6-(1-methyl-1H-pyrazol-4-yl)-3,4-dihydroquinolin-1(2H)-yl)-N,1,7-trimethyl-1H-indole-3-carboxamide]: the IC50 turned out to be 0.016 µM on CBP and 0.377 µM in the test on MYC.
The like results for `CNC(=O)c1cn(C)c2c(C)cc(N3CCCc4cc(-c5cnn(C)c5)c(C(F)F)cc43)nc12` [Example 60] were, in that order, 0.009 µM and 0.108 µM.
With `C=C(C)c1cc(N2CCCc3cc(-c4cnn(C)c4)c(C(F)F)cc32)cc2c(C(=O)NC)cn(C)c12` [Example 107, 5-(7-(difluoromethyl)-6-(1-methyl-1H-pyrazol-4-yl)-3,4-dihydroquinolin-1(2H)-yl)-N,1-dimethyl-7-(prop-1-en-2-yl)-1H-indole-3-carboxamide], the IC50 on CBP was found to be 0.016 µM; in the test on MYC it was 0.147 µM.
Take `CNC(=O)c1c[nH]c2c(C)cc(N3CCCc4cc(-c5cnn(C)c5)c(C(F)F)cc43)nc12` [Example 66]: the IC50 was found to be 0.004 µM at CBP and 0.046 µM in the test on MYC.
With `Cc1c(N2CCCc3cc(-c4cnn(C)c4)c(C(F)F)cc32)ccc2c1n(C)c(=O)n2C` [Example 40], the IC50 at CBP was determined as 0.072 µM; in the test with MYC, 1.94 µM.
With `Cn1cc(-c2cc3c(cc2C(F)F)N(c2cc(Cl)c4c(c2)n(C)c(=O)n4C)CCC3)cn1` [Example 33, 4-chloro-6-(7-(difluoromethyl)-6-(1-methyl-1H-pyrazol-4-yl)-3,4-dihydroquinolin-1(2H)-yl)-1,3-dimethyl-1H-benzo[d]imidazol-2(3H)-one], the 50% inhibitory concentration (IC50) on CBP was 0.042 µM; with MYC, 1.17 µM.
Consider `CC(=O)N1CCOc2ccc(N3CCCc4cc(-c5cnn(C)c5)c(C(F)F)cc43)cc2C1` [Example 112, 1-(7-(7-(difluoromethyl)-6-(1-methyl-1H-pyrazol-4-yl)-3,4-dihydroquinolin-1(2H)-yl)-2,3-dihydrobenzo[f][1,4]oxazepin-4(5H)-yl)ethanone], for which the figures for the IC50 on CBP and with MYC were 0.032 µM and 2.1 µM, respectively.
